# Patent US7786114B2, “Bis-azaindole derivatives, preparation and pharmaceutical use thereof as kinase inhibitors” (Aventis Pharma S.A., priority 2004, dated 2010)
row,melting point,SMILES
1,188 °C,"COc1cc2c(nc1OC)c(-c1cc3c(Cl)c(F)cnc3[nH]1)cn2CCCN1CCC(O)CC1 [Example 12, 1-{3-[3-(4-Chloro-5-fluoro-1H-pyrrolo[2,3-b]pyridin-2-yl)-5,6-dimethoxypyrrolo[3,2-b]pyridin-1-yl]propyl}piperidin-4-ol]"
2,135 °C,"COc1cc2c(nc1OC)c(-c1cc3c(Cl)c(F)cnc3[nH]1)cn2CCCN1CCC(CN)CC1 [Example 15, C-(1-{3-[3-(4-Chloro-5-fluoro-1H-pyrrolo[2,3-b]pyridin-2-yl)-5,6-dimethoxypyrrolo[3,2-b]pyridin-1-yl]propyl}piperidin-4-yl)methylamine]"
3,189 °C,"COc1cc2c(nc1OC)c(-c1cc3c(Cl)c(F)cnc3[nH]1)cn2CCCN1CCOCC1 [Example 14, 3-(4-Chloro-5-fluoro-1H-pyrrolo[2,3-b]pyridin-2-yl)-5,6-dimethoxy-1-(3-morpholin-4-ylpropyl)-1H-pyrrolo[3,2-b]pyridine]"

# The remaining lines, values behind:
row,SMILES,melting point
1,"COc1cc2[nH]cc(-c3cc4c(Cl)c(F)cnc4[nH]3)c2nc1OC [Example 9, 3-[4-Chloro-5-fluoro-1H-pyrrolo[2,3-b]pyridin-2-yl]-5,6-dimethoxy-1H-pyrrolo[3,2-b]pyridine]",283 to 284 °C
2,"COc1cc2c(nc1OC)c(-c1cc3c(Cl)c(F)cnc3[nH]1)cn2CCCN1CCCCC1 [Example 11, 3-[4-Chloro-5-fluoro-1H-pyrrolo[2,3-b]pyridin-2-yl]-5,6-dimethoxy-1-(3-piperidin-1-ylpropyl)-1H-pyrrolo[3,2-b]pyridine]",110 to 114 °C
3,"COc1cc2c(nc1OC)c(-c1cc3c(Cl)c(F)cnc3[nH]1)cn2CCCN1CCCN(C)CC1 [Example 13, 3-(4-Chloro-5-fluoro-1H-pyrrolo[2,3-b]pyridin-2-yl)-5,6-dimethoxy-1-[3-(4-methylperhydro-1,4-diazepin-1-yl)propyl]-1H-pyrrolo[3,2-b]pyridine]",140 to 145 °C
4,"COc1cc2c(nc1OC)c(-c1cc3c(Cl)c(F)cnc3[nH]1)cn2CCN1CCOCC1 [Example 8, 3-(4-chloro-5-fluoro-1H-pyrrolo[2,3-b]pyridin-2-yl)-5,6-dimethoxy-1-(2-morpholin-4-yl-ethyl)-1H-pyrrolo[3,2-b]pyridine]",206 °C
5,"COc1cc2c(nc1OC)c(-c1cc3c(Cl)c(F)cnc3[nH]1)cn2CCCN1CCN(C)CC1 [Example 16, 3-(4-Chloro-5-fluoro-1H-pyrrolo[2,3-b]pyridin-2-yl)-5,6-dimethoxy-1-[3-(4-methylpiperazin-1-yl)propyl]-1H-pyrrolo[3,2-b]pyridine]",155 °C
6,"COc1cc2c(nc1OC)c(-c1cc3cc(F)cnc3[nH]1)cn2CCN1CCOCC1 [Example 7, 3-(5-fluoro-1H-pyrrolo[2,3-b]pyridin-2-yl)-5,6-dimethoxy-1-(2-morpholin-4-ylethyl)-1H-pyrrolo[3,2-b]pyridine]",218 °C
